These results are taken from US20070149487A1, “Antiviral Compositions and Methods” (priority 2005, published 2007).

Data set [1] deals with human SARS-CoV Toronto-2 strain. In kind it is cell-based.

Bounds are passed on as bounds.

The CC50 is the concentration that lowers cell viability or growth by half. Lower therefore signals greater toxicity to the cells. The EC50 is the concentration needed to bring the measured effect to its halfway point. A higher EC50 goes with lower potency in that assay. In the data set with Vero E6 cells, `CN1CCC(c2nc(-c3ccc(Cl)cc3)cc(C(F)(F)F)n2)CC1` [CS06] had a CC50 of 95 µM. Moreover, in data set [1], the EC50 is over 100 µM and the “Average Inhibition (%) at 32 μM” value stood at 0%.
Take `CS(=O)(=O)c1ccc2c(c1)nc(C(F)(F)F)n2C1CCNCC1` [CS02]: in the data set with Vero E6 cells, the CC50 was over 100 µM. Further, in data set [1], the EC50 is over 100 µM and the “Average Inhibition (%) at 32 μM” value worked out at 0%.
As for `Cc1ccc([N+](=O)[O-])cc1N1C(=O)c2ccc(C(=O)O)cc2C1=O` [CS12], the CC50 in the data set with Vero E6 cells is over 100 µM. Moreover, in data set [1], the EC50 was over 100 µM and the “Average Inhibition (%) at 32 μM” value turned out to be 13%.
In the data set with Vero E6 cells, `O=C(O)c1ccc(C2Nc3c(Cl)cc(Cl)c(Cl)c3C3C=CCC32)cc1` (stereo not shown) [CS09] gave a 50% cytotoxic concentration (CC50) of 85 µM. Further, in data set [1], the EC50 was over 100 µM and the “Average Inhibition (%) at 32 μM” value worked out at 13%.
`CC(=O)Nc1ccc2c(c1)[C@H]1C=CC[C@@H]1[C@H](c1ccc([N+](=O)[O-])cc1)N2` [CS08]: the CC50 in the data set with Vero E6 cells is over 100 µM. In data set [1], the EC50 was over 100 µM and the “Average Inhibition (%) at 32 μM” value worked out at 17%.
In turn, `O=C(O)c1ccc(N=Cc2c(O)ccc3oc4c(c23)CCCC4)cc1` [CS11] gave a CC50 with Vero E6 cells of 76 µM. For the same compound, in the data set on Vero E6 cells (at 23 μM), the “toxicity to normal cells in cell viability assays” value is “not toxic”. Besides, in data set [1], a half-maximal response (EC50) required 23 µM and the “Average Inhibition (%) at 32 μM” value is given as 66%.
The compound `O=C(NN=C1C(=O)Nc2ccccc21)NC1CCS(=O)(=O)C1` (racemic) [CS07] registered a CC50 in the data set with Vero E6 cells of over 100 µM. Also, in data set [1], the EC50 was over 100 µM and the “Average Inhibition (%) at 32 μM” value is 1%.
In the case of `CCN1C(=O)c2cccc3c(NC(=O)c4ccc([N+](=O)[O-])s4)ccc1c23` [CS05], in the data set on Vero E6 cells, the CC50 stood at 10 µM. Further, in data set [1], the EC50 is over 100 µM and the “Average Inhibition (%) at 32 μM” value was 0%.
`N=C1C(=Cc2ccc3c(c2)OCO3)C(=O)C=C2SC(C(F)(F)F)=NN12` [CS10] returned a CC50 in the data set on Vero E6 cells of 67 µM. In addition, in data set [1], the EC50 was over 100 µM and the “Average Inhibition (%) at 32 μM” value is listed as 14%.
Take `CN1CCc2c(sc3c2C(=O)NC(c2ccc(O)c(O)c2)N3)C1` (stereo not shown) [CS01]: the CC50 with Vero E6 cells is over 100 µM. Besides, in data set [1], the EC50 was over 100 µM and the “Average Inhibition (%) at 32 μM” value was determined as 0%.
In turn, `NC(c1cc(C(F)(F)F)cc(C(F)(F)F)c1)c1cc(C(F)(F)F)cc(C(F)(F)F)c1` [CS03] showed a CC50 with Vero E6 cells of over 100 µM. For the same compound, in data set [1], the EC50 is over 100 µM and the “Average Inhibition (%) at 32 μM” value is listed as 0%.
In the data set on Vero E6 cells, `CC(=O)Nc1ccc(N2C(=O)CC(N3CC(C)OC(C)C3)C2=O)cc1` (stereo not shown) [CS04] came in with a CC50 of over 100 µM. In data set [1], the EC50 was over 100 µM and the “Average Inhibition (%) at 32 μM” value was 4%.
